Measured values reported in PMC8487040, “Detection of juvenile hormone agonists by a new reporter gene assay using yeast expressing Drosophila methoprene‐tolerant” (FEBS Open Bio, 2021).

target: T1, Met–Tai (D. melanogaster Met co-expressed with Tai) (Drosophila melanogaster, UniProt Q9VYW2, T103P); test: yeast lacZ reporter gene assay (beta-galactosidase, ONPG); type: cell-based; conditions: not given
T1 construct: full-length Met ORF (codon 103 CCC, Pro); heterodimer; with Taiman
Source text: yeast lacZ reporter gene assay (beta-galactosidase, ONPG) on Met–Tai (D. melanogaster Met co-expressed with Tai)

T1 sequence (Q9VYW2 1-716 T103P): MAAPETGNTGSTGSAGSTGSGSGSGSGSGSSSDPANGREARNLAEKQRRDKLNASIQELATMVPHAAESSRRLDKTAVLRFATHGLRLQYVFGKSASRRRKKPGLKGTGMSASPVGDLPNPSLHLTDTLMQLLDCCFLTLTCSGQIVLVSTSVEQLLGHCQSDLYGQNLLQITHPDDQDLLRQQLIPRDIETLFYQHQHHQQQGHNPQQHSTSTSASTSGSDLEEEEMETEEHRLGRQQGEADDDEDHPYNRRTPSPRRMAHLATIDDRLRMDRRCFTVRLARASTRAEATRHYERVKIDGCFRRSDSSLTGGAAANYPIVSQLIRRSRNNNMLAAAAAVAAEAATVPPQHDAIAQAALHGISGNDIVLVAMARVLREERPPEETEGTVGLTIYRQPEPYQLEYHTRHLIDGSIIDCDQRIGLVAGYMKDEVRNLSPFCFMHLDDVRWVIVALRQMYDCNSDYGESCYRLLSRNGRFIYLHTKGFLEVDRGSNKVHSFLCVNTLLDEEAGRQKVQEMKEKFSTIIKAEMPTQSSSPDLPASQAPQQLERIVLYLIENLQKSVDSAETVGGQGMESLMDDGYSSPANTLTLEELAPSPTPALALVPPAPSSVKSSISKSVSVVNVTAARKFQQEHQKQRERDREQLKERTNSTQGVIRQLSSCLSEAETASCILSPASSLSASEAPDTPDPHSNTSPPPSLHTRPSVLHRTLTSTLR
T1 sequence (Q9VLD9 1-2026 partner): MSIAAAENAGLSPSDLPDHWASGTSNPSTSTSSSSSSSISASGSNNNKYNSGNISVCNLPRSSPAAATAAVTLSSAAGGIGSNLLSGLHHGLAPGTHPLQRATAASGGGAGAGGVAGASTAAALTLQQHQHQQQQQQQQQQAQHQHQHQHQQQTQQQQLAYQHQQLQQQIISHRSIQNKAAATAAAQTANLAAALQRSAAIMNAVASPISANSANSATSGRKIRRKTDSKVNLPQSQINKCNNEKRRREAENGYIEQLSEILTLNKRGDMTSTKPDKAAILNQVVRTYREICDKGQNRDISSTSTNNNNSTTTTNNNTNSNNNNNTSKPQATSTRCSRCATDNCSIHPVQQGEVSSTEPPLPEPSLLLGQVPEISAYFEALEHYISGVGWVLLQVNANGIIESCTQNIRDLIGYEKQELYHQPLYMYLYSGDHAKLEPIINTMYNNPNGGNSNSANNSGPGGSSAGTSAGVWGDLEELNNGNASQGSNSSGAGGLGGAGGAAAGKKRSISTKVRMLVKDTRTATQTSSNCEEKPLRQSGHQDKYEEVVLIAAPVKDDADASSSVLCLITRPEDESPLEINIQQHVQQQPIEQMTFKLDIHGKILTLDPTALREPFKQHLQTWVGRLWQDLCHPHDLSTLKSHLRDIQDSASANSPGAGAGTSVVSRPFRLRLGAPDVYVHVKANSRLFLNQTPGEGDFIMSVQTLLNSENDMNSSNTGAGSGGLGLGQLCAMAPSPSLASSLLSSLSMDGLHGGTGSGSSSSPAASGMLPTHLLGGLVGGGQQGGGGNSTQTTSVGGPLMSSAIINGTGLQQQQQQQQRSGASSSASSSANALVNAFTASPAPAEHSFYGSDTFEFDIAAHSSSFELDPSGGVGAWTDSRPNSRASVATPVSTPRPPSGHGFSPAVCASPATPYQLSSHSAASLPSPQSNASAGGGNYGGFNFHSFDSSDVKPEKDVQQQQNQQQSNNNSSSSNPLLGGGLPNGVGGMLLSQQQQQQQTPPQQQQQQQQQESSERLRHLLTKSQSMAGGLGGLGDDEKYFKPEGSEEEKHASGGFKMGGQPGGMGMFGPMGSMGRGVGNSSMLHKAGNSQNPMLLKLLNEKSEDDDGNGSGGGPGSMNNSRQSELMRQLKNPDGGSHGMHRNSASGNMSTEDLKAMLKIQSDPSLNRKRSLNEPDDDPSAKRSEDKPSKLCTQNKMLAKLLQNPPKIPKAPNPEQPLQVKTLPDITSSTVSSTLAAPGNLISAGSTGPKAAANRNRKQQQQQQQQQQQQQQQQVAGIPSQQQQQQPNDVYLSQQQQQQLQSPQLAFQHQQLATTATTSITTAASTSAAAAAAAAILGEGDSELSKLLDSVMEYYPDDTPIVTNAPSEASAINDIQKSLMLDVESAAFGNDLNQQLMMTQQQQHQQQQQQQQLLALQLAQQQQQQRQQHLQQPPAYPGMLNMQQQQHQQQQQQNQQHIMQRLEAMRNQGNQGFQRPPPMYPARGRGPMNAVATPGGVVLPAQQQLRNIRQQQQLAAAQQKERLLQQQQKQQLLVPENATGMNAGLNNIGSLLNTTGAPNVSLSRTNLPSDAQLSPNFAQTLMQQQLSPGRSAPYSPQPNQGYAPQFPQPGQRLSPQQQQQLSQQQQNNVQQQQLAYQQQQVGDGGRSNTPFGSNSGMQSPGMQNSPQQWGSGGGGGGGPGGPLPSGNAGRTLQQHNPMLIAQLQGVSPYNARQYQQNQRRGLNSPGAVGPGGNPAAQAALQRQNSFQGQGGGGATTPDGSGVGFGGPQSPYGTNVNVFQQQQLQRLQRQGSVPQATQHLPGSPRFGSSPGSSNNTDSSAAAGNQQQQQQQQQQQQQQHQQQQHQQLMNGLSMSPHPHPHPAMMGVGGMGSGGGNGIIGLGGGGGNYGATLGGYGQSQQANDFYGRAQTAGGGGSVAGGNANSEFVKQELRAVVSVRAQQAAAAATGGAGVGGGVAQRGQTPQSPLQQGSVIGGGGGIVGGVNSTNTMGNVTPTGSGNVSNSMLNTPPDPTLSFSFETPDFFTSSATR

`CC[C@]1(C)O[C@@H]1CC/C(C)=C/CC/C(C)=C/C(=O)OC` [JH II] and `COC(=O)/C=C(\C)CC/C=C(\C)CC[C@H]1OC1(C)C` [JH III] are within error of each other in EC50: 0.05 ± 0.017 µM for the first, 0.062 ± 0.005 µM for the second.

First: CCOC(=O)NCCOc1ccc(Oc2ccccc2)cc1 [Fenoxycarb]
Second: CCOC(=O)/C=C(C)/C=C/C[C@@H](C)CCCC(C)C [(S)‐hydroprene]
The EC50 of the first is 190-fold lower: 0.003 ± 0.001 µM for the first, 0.57 ± 0.15 µM for the second. The first is the more potent here.

First: COC(C)(C)CCCC(C)C/C=C/C(C)=C/C(=O)OC(C)C (stereo not drawn) [Methoprene]
Second: COC(=O)/C=C(\C)CC/C=C(\C)CCC=C(C)C [Methyl farnesoate]
The EC50 of the first is 6.9-fold higher: 1.1 ± 0.23 µM for the first, 0.16 ± 0.007 µM for the second.

First: CC/C(=C\C(=O)OC)CC/C=C(\CC)CC[C@H]1O[C@@]1(C)CC [JH 0]
Second: CC/C(=C\CC/C(C)=C/C(=O)OC)CC[C@H]1O[C@@]1(C)CC [JH I]
The EC50 of the first is 3.3-fold higher: 0.213 ± 0.014 µM for the first, 0.065 ± 0.011 µM for the second. The second is the more potent here.

same assay, conditions: agonist; 30 °C, 18 h; Tai co-expressed; BmkJHRE x 2 reporter

`CC(COc1ccc(Oc2ccccc2)cc1)Oc1ccccn1` (stereo not drawn) [Pyriproxyfen] showed an EC50 of 0.087 ± 0.012 µM.
